Literature values, collected in patent publication US20060211662A1, “Combination therapy for topical application in the treatment of age-related macular degeneration and ocular hypertension” (priority 2005, published 2006).

Key:
[1] = for androgenic (virilizing) activity relative to standards: relative to standards (typically testosterone)
[2] = for anabolic activity relative to standards: relative to standards (typically testosterone)

Row | SMILES | androgenic (virilizing) activity relative to standards [1] | anabolic activity relative to standards [2] | androgenic activity as percent of methyltestosterone ([1]; relative to methyltestosterone) [%] | anabolic activity as percent of methyltestosterone ([2]; relative to methyltestosterone) [%]
1 | CCC(=O)O[C@H]1CC[C@H]2[C@@H]3CCC4=CC(=O)CC[C@@H]4[C@H]3CC[C@]12C [19-nortestosterone propionate] | decreased | unchanged |  | 
2 | C[C@]12CCC(=O)C[C@@H]1CC[C@@H]1[C@@H]2CC[C@]2(C)[C@@H](O)CC[C@@H]12 [dihydrotestosterone] | unchanged | enhanced |  | 
3 | C[C@]1(O)CC[C@H]2[C@@H]3CCC4=CC(=O)CC[C@]4(C)[C@@]3(F)[C@@H](O)C[C@@]21C [fluoxymesterone] | augmented | even larger increase |  | 
4 | C[C@]12COC(=O)C[C@@H]1CC[C@@H]1[C@@H]2CC[C@@]2(C)[C@H]1CC[C@]2(C)O [oxandrolone, 17 alpha-methyl-17β-hydroxy-2-oxa-5 alpha-androstan-3-one] | decreased | increased | 24 | 322
5 | C[C@]12C/C(=C/O)C(=O)C[C@@H]1CC[C@@H]1[C@@H]2CC[C@@]2(C)[C@H]1CC[C@]2(C)O [oxymetholone] | unchanged | enhanced |  | 
6 | C[C@]12Cc3c[nH]nc3C[C@@H]1CC[C@@H]1[C@@H]2CC[C@@]2(C)[C@H]1CC[C@]2(C)O [stanozolol] | decreased | increased |  | 
